The values that follow come from PubChem BioAssay AID1576 (EPA DSSTox, 2009).

Active and inactive are the calls of the source.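 How the source made its calls: active means chemicals shown by follow-up kinetic tests to compete for rat estrogen receptor sites, with a measured inhibition constant; inconclusive means some binding seen but constant unmeasurable owing to poor solubility; inactive means no binding up to top dose, or binding unconfirmed.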

Sequence of Estrogen receptor (Rattus norvegicus) (P06211 whole entry, looked up): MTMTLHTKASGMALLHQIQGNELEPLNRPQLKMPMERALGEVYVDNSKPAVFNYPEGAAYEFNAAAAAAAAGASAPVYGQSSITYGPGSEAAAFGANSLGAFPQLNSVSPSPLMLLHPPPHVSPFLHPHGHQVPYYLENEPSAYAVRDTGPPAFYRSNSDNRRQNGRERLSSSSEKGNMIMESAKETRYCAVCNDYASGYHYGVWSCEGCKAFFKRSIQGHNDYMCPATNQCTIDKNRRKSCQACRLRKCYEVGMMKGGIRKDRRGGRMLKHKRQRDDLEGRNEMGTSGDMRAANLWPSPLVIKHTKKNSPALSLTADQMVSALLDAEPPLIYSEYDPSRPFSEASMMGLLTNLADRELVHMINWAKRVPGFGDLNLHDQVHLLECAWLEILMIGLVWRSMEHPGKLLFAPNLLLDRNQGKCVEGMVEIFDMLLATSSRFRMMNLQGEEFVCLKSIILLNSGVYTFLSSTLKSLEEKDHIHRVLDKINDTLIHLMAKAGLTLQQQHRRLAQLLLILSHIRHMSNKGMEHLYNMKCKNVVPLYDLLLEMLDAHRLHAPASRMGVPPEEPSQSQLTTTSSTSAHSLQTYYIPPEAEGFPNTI

The first data set addresses Estrogen receptor (Rattus norvegicus) (UniProt P06211). Briefly: DSSTox (KIERBL) EPA Estrogen Receptor Ki Binding Study (Laws et al.) Database. The following applies: Rat uterine cytosol ER, 3H-estradiol competitive binding. Here is the method: This study was conducted by EPA researchers to evaluate the validity of the rat uterine cytosolic (RUC) estrogen receptor (ER) competitive binding assay for use in the Endocrine Disruption Screening Program (EDSP). The assay measures the ability of radiolabeled 17-beta-estradiol (3H-E2) to bind with RUC ER in the presence of increasing concentrations of a test chemical. The goal is to employ this in vitro assay as a 1st tier screening tool for assessing the potential of structurally diverse environmental chemicals to bind to the ER, as well as to support research efforts to develop computational models to predict ER binding. A distinguishing feature of the present study was the use of secondary experimental analysis of binding curves and determination of Ki values to confirm that measured IC50 values corresponded to true positive results. The study concluded that a number of experimental conditions can confound interpretation of IC50 values obtained from the RUC ER-binding assay data and lead to false positive results. In particular, some chemical treatments likely alter the stability of the assay by changing the buffer pH, denaturing ER, or disrupting the ER binding kinetics. […] The chemicals used in this study were selected as part of a validation test for two Quantitative Structure-Activity Relationship (QSAR) models designed to predict ER binding [Fed. Reg. 67(250), 79618, Dec. 30, 2002]. Several hundred chemicals were initially screened, including approximately 100 chemicals selected from among the High Production Volume (HPV) chemicals included in EPA's Toxic Substances Control Act (TSCA) inventory that were predicted to be positive for ER binding, with the rest selected at random from the TSCA inventory. All chemicals were initially tested in ER competitive binding assays by Battelle Pacific Northwest Laboratories, Richland, Washington [EPA Contract Number 68-W-99-033, Task 6]. Approximately 50 chemicals produced binding curves that: (1) strongly implied competitive inhibition of ER binding, or (2) produced partial curves or irregular (non-sigmoid) binding curves. These chemicals were further evaluated in an ER competitive binding assay with secondary analysis to confirm true competitive inhibition and to determine an experimental Ki [U.S. EPA Contract 3D-5967-NTEX]. The results of RUC ER screening for these 50 structurally diverse chemicals, for which secondary confirmatory analyses were performed, were published in the Main Citation (Laws et al., 2006, Tox. Sci. 94:46-56). The remaining 228 chemicals were designated as non-binders based on initial screening studies.
The DSSTox KIERBL data files include all published IC50 and Ki experimental results for the 50 chemicals included in the Main Citation (Laws et al., 2006) (denoted Group 1), as well as previously unpublished results for an additional 228 structually diverse TSCA chemicals for which no ER binding was observed (denoted Group 2. IC50 values were determined for 32 compounds in Group 1 as the concentration of a test chemical that inhibits the maximal specific binding of 0.33 nM radiolabeled (3H) 17-beta-estradiol (E2) to rat uterine cytosolic (RUC) estrogen receptor (ER) by 50%. Confirmation of binding status was accomplished by secondary analysis using Lineweaver-Burk plots and slope replots to determine true competitive inhibition and an experimental Ki value. Ki is the inhibition constant for the test chemical, i.e., the concentration of the test chemical that will bind to half the binding sites at equilibrium (displacing half of the probe-bound receptors), in the absence of radioligand or other competitors. Ki reported as Mean +/- Standard Error from n=2 experiments (see StandardError_Ki_n2) and is determined from Lineweaver-Burk plots over the tested dose range (TestedRange_microM). For more information see BindingCurve_Group and BindingCurve_Details. […]
As to `C(CCOCC1CO1)COCC1CO1` (stereo not drawn), the outcome was “inactive; none”.

Take `NCCCCCCNCCCCCCN`: the outcome is “inactive; none”. For `CSc1ccc(C(=O)C(C)(C)N2CCOCC2)cc1`, the outcome is “inactive; none”. Same read-out and setting: the value for `OCCOc1ccc(OCCO)cc1` was “inactive; none”; that for `O=C(Nc1ccccc1)c1cc(Cl)ccc1O` was “inactive; incomplete”; that for `c1ccsc1` was “inactive; none”. For `O=C1OC2(c3ccc(O)cc3Oc3cc(O)ccc32)c2ccccc21`, the outcome is “inactive; none”.

`Cc1cc(-n2nc3ccc(Cl)cc3n2)c(O)c(C(C)(C)C)c1`: the outcome is “inactive; none”.

In the case of `O=C1OC2(c3ccc(O)cc3Oc3cc(O)ccc32)c2c(Cl)c(Cl)c(Cl)c(Cl)c21`, the outcome was “inactive; none”. On the same count and under the same terms, under `CCO[Si](CCCN=C=O)(OCC)OCC` stands “inactive; none”; under `O=C1c2ccccc2C(=O)N1SC1CCCCC1`, “inactive; none”; under `CCCCCCOc1ccccc1C(=O)O`, “inactive; none”. For `CC(C)(C)c1cc(C(C)(C)c2ccc(O)c(C(C)(C)C)c2)ccc1O`, the outcome was “inactive; incomplete”.

As for `CCCCCCOC(=O)c1ccccc1C(=O)OCCCCCC`, the outcome was “inactive; none”. As for `C1CCC(NC2CCCCC2)CC1`, the outcome was “inactive; none”. As to `CCCCCCC`, the outcome was “inactive; none”. On to `CCN(CC)c1ccc(N)c(C)c1`, for which the outcome is “inactive; none”. The same measure, in the same setting: under `COc1nc(C)nc(NC(=O)NS(=O)(=O)c2ccccc2Cl)n1` stands “inactive; none”; under `C[Si]1(C)N[Si](C)(C)N[Si](C)(C)N1`, “inactive; incomplete”.

As for `CCCCCCC1CCC(=O)O1` (stereo not drawn), the outcome was “inactive; none”. Same read-out and setting: under `CCCCCCCCCCCCCCCCCCCCCCCCO` stands “inactive; none”; under `CO[Si](CCCNCCC[Si](OC)(OC)OC)(OC)OC`, “inactive; none”; under `CN(C)C(=O)Nc1ccc(Cl)c(Cl)c1`, “inactive; none”. The same measure, in the same setting: under `CCO[Si](CCCCl)(OCC)OCC` stands “inactive; none”; under `N#CCC(=O)O`, “inactive; none”. Turning to `COc1ccc(C=O)cc1OC`, the outcome is “inactive; incomplete”. Take `C=C(C)C(=O)OCCOCC`: the outcome was “inactive; none”. For the compound `CC(C)CCCCCOC(=O)CS`, the outcome is “inactive; none”. Still for that read-out and setting: under `O=C=Nc1cccc(C(F)(F)F)c1` stands “inactive; none”; under `O=S(=O)(O)c1ccc(N=Nc2c(O)ccc3ccccc23)cc1`, “inactive; none”. Same read-out and setting: under `CCN(CC)c1ccc(C(=C2C=CC(=[N+](CC)CC)C=C2)c2ccc(N(CC)CC)cc2)cc1` stands “inactive; none”; under `O=Cc1ccccc1[N+](=O)[O-]`, “inactive; none”; under `C=CC(=O)OCCOCCOC(=O)C=C`, “inactive; none”. The same measure, in the same setting: under `C=CCCCCCCCCC=O` stands “inactive; incomplete”; under `CCN(CCO)c1ccc(N=Nc2ccc([N+](=O)[O-])cc2Cl)cc1`, “inactive; none”.

Turning to `O=C=NCCCCCCN=C=O`, the outcome is “inactive; none”. The same measure, in the same setting: the value for `CCO[Si](C)(CCCN)OCC` was “inactive; none”.

As to `COC(=O)C(C)O` (stereo not drawn), the outcome is “inactive; none”. Still for that read-out and setting: under `C=CC(=O)OCCC(F)(F)C(F)(F)C(F)(F)C(F)(F)C(F)(F)C(F)(F)F` stands “inactive; none”; under `O=C(Nc1ccc(Cl)cc1)Nc1ccc(Cl)c(Cl)c1`, “inactive; none”. Take `CC(C)(C)c1cc(Cc2cc(C(C)(C)C)c(O)c(C(C)(C)C)c2)cc(C(C)(C)C)c1O`: the outcome is “inactive; none”.

The same data set, now with this note: Rat uterine cytosol ER, 3H-estradiol competitive binding; TestedRange_microM: 20-70.
For the compound `CC(c1ccc(O)cc1)(c1ccc(O)cc1)c1ccc(O)cc1`, the Potency is 18.3 µM.

The same data set, now with this note: Rat uterine cytosol ER, 3H-estradiol competitive binding; TestedRange_microM: 30-200.
As to `O=C(Nc1ccc(Cl)c(Cl)c1)Nc1cc(Cl)ccc1Oc1ccc(Cl)cc1S(=O)(=O)O`, the outcome was “inactive; partial”.
